From ChEMBL document CHEMBL1150918, “Phospholipase Cgamma1 inhibitory principles from the sarcotestas of Ginkgo biloba” (J Nat Prod, 1998)
Values after ≈ are worked out from the molar mass of the structure shown.

How the values were obtained:
[1] = molecular target: T1, 1-phosphatidylinositol 4,5-bisphosphate phosphodiesterase gamma-1 (Bos taurus, UniProt P08487); test: Inhibition of bovine brain PI-PLCgamma1
T1 sequence (P08487 whole entry): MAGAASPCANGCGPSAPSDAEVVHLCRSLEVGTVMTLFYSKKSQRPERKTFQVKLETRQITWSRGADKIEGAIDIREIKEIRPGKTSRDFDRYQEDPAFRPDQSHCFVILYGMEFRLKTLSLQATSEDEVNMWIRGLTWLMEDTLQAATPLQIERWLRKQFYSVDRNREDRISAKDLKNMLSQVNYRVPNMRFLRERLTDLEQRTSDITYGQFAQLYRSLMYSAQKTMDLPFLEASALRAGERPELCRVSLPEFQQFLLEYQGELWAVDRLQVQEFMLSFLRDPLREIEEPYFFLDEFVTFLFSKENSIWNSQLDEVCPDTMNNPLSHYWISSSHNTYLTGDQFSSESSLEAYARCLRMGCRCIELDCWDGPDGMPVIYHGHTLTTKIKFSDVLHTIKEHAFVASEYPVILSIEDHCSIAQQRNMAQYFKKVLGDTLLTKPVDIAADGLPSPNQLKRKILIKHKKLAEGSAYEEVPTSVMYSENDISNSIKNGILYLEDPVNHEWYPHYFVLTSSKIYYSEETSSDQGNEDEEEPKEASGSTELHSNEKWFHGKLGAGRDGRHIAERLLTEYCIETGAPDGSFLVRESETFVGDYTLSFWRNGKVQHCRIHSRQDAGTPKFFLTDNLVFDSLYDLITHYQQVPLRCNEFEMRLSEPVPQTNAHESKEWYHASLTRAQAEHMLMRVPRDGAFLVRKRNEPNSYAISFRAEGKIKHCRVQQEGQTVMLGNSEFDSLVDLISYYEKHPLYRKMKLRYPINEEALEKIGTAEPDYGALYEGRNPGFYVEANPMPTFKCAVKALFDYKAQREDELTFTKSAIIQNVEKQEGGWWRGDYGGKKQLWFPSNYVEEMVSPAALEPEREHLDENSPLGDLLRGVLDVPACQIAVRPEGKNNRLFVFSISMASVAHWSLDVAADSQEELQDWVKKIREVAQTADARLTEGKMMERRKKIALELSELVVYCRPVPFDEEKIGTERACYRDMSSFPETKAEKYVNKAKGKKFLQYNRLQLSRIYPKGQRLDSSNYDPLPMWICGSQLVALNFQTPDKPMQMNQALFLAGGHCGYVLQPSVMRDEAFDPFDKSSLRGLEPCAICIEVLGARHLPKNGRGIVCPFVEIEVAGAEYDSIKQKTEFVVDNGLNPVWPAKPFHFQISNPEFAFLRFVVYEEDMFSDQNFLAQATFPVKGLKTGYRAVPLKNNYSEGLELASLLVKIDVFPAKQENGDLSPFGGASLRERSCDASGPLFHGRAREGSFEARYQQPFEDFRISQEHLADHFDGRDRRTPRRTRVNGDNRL

MCF7 = test: Growth inhibition of human MCF7 cells after 2 days by SRB assay; type: functional, cell-based; conditions: MCF7, 48 h
HT1197 = test: Growth inhibition of human HT1197 cells after 2 days by SRB assay; type: functional, cell-based; conditions: HT1197, 48 h
A549 = test: Growth inhibition of human A549 cells after 2 days by SRB assay; type: functional, cell-based; conditions: A549, 48 h
SK-OV-3 = test: Growth inhibition of human SKOV3 cells after 2 days by SRB assay; type: functional, cell-based; conditions: SK-OV-3, 48 h
HCT-15 = test: Growth inhibition of human HCT15 cells after 2 days by SRB assay; type: functional, cell-based; conditions: HCT-15, 48 h
[2] = Growth inhibition of human CCD-18Co cells after 2 days by SRB assay; type: cell-based; conditions: 48 h
[3] = Inhibition of pig brain PI-PLCgamma1; parameters: species or system Sus scrofa
[4] = molecular target: T2, 1-phosphatidylinositol 4,5-bisphosphate phosphodiesterase gamma-1 (Rattus norvegicus, UniProt P10686); test: Inhibition of rat brain PI-PLCgamma1
T2 sequence (P10686 whole entry): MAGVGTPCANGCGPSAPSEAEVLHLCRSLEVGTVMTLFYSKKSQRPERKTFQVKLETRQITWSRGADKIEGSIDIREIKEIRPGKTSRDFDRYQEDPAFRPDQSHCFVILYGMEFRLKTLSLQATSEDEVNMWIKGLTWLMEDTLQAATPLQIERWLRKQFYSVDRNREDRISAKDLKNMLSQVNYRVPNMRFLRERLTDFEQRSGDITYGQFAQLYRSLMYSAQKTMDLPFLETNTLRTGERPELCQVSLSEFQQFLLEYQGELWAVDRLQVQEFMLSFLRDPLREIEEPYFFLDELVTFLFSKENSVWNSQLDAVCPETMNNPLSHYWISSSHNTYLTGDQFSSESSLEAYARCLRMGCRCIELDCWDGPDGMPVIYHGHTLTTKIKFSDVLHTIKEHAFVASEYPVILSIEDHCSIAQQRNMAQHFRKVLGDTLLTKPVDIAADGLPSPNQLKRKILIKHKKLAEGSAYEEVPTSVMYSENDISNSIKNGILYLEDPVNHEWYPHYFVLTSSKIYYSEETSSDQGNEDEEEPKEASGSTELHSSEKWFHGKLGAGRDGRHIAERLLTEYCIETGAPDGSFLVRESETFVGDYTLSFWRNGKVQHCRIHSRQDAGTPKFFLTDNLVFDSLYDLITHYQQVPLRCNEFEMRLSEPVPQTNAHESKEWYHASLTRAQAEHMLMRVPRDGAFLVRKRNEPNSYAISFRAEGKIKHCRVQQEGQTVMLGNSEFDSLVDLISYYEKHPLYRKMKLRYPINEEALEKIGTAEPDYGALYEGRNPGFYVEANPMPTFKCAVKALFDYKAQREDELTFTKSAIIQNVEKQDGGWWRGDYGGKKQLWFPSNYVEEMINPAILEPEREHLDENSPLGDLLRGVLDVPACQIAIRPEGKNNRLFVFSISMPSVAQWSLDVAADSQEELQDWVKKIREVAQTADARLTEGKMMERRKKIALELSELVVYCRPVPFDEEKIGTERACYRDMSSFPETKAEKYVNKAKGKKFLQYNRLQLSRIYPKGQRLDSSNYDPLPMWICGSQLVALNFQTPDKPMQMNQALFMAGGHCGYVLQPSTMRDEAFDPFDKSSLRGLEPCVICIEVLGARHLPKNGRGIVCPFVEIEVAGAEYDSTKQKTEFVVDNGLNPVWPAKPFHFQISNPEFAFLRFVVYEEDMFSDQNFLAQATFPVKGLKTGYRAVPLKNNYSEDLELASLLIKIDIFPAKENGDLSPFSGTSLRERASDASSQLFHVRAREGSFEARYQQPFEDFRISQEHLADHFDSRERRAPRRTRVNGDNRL

Compound | IC50 [1] | IC50 (MCF7) | IC50 (A549) | IC50 (HCT-15) | IC50 (HT1197) | other results
O=C(O)c1ccccc1O [SALICYLIC ACID] | 873 µM | – | – | – | – | –
CCCCCC/C=C\CCCCCCCc1cccc(O)c1C(=O)O [GINGKOLIC ACID] | 5.66 µM | 6.44 µg/mL (≈ 18.6 µM) | 31.3 µg/mL (≈ 90.3 µM) | 12.7 µg/mL (≈ 36.7 µM) | 46.3 µg/mL (≈ 134 µM) | IC50 (SK-OV-3): > 50 µg/mL; IC50 [2]: 97.1 µg/mL (≈ 280 µM)
CCCCCC/C=C\CCCCCCCCCc1cc(O)cc(O)c1 | 30.6 µM | – | – | – | – | –
CCCCCC/C=C\CCCCCCCCCc1cccc(O)c1 | 9.73 µM | 7.19 µg/mL (≈ 21.8 µM) | 11.8 µg/mL (≈ 35.7 µM) | 32.9 µg/mL (≈ 99.5 µM) | 20.8 µg/mL (≈ 63 µM) | IC50 [2]: 66.4 µg/mL (≈ 201 µM)
CC(=O)O[C@@H]1[C@H](O[C@H](CO)[C@H](O)[C@@H](O)[C@@H](OC(C)=O)C(=O)O[C@H](C)CCCCCCCCCCCCCCCc2cccc(O)c2C(=O)O)O[C@H](CO)[C@@H](O)[C@@H]1O [CALOPOROSIDE] | – | – | – | – | – | IC50 [3]: 18 µM
CCCCCC/C=C\CCCCCCCc1cccc(OC(C)=O)c1 | > 726 µM | – | – | – | – | –
CCCCCC/C=C\CCCCCCCc1cccc(OC(C)=O)c1C(=O)OC | > 621 µM | – | – | – | – | –
C[C@@H]1CC[C@H]2[C@]13CC[C@@]1(C)O[C@]2(C)[C@@H](NCCCCN(C)CCCN(C)C)[C@H]1C3 [HISPIDOSPERMIDIN] | – | – | – | – | – | IC50 [4]: 16 µM
CCCCCCCCCCCCCc1cc(O)cc(O)c1 | 72.3 µM | 1.91 µg/mL (≈ 6.53 µM) | > 50 µg/mL | 15.3 µg/mL (≈ 52.4 µM) | 2.2 µg/mL (≈ 7.52 µM) | IC50 (SK-OV-3): > 50 µg/mL; IC50 [2]: > 100 µg/mL
Cc1cccc(O)c1 [METACRESOL] | > 2310 µM | – | – | – | – | –
CC(=O)c1cc2c(=O)c3c(C(=O)O)c(O)c(O)cc3oc2c(C(C)=O)c1-c1coc2cc(O)c(O)c(C(=O)O)c2c1=O [VINAXANTHONE] | – | – | – | – | – | IC50 [4]: 5.4 µM
CCCCCC/C=C\CCCCCCCc1cccc(O)c1C(=O)OC | > 693 µM | – | – | – | – | –
CCCCCCCCCCCCCc1cccc(O)c1C(=O)O [GINKGOLIC ACID 13:0] | 16.3 µM | 22.7 µg/mL (≈ 70.7 µM) | > 50 µg/mL | > 50 µg/mL | 44.6 µg/mL (≈ 139 µM) | IC50 (SK-OV-3): 20.4 µg/mL (≈ 63.7 µM); IC50 [2]: 59.1 µg/mL (≈ 184 µM)

Continued, in another order:

IC50 [1] | IC50 (MCF7) | IC50 (A549) | IC50 (HCT-15) | Compound | IC50 (HT1197) | other results
> 621 µM | – | – | – | CCCCCC/C=C\CCCCCCCc1cc(OC(C)=O)cc(OC(C)=O)c1 | – | –
58 µM | 8.71 µg/mL (≈ 28.6 µM) | 11.9 µg/mL (≈ 39.1 µM) | 31.9 µg/mL (≈ 105 µM) | CCCCCCCCCCCCCCCc1cccc(O)c1 | 41.8 µg/mL (≈ 137 µM) | –
29 µM | – | – | – | O=c1cc(-c2ccc(O)c(-c3c(O)cc(O)c4c(=O)cc(-c5ccc(O)cc5)oc34)c2)oc2cc(O)cc(O)c12 [AMENTOFLAVONE] | – | –
2.22 µM | 5.06 µg/mL (≈ 13.5 µM) | 29.2 µg/mL (≈ 78 µM) | 8.39 µg/mL (≈ 22.4 µM) | CCCCCC/C=C\CCCCCCCCCc1cccc(O)c1C(=O)O [GINKGOLIC ACID 17:1] | 28.1 µg/mL (≈ 75.1 µM) | IC50 (SK-OV-3): > 50 µg/mL
> 2010 µM | – | – | – | Cc1cc(O)cc(O)c1 [ORCINOL] | – | –
57.8 µM | 7.04 µg/mL (≈ 25.5 µM) | 25.9 µg/mL (≈ 93.7 µM) | 29.7 µg/mL (≈ 107 µM) | CCCCCCCCCCCCCc1cccc(O)c1 | 14.6 µg/mL (≈ 52.7 µM) | IC50 (SK-OV-3): > 50 µg/mL; IC50 [2]: 73.2 µg/mL (≈ 265 µM)
